Data taken from article PMC10892429, “Design, Synthesis, and Antitumor Evaluation of an Opioid Growth Factor Bioconjugate Targeting Pancreatic Ductal Adenocarcinoma” (Pharmaceutics, 2024).

Tests used:
[1] = test system: AsPC-1-induced platelet aggregation (washed platelets); experiment: Tumor cell-induced platelet aggregation (TCIPA), light aggregometry and TEM; assay type: cell-based, human; details: 50, 100 μM (any tested concentration), 10 min pre-incubation with washed platelets, AsPC-1 2 × 10^5/mL
Experimental: The MIA PaCa-2 and AsPC-1 cell cultures were washed and detached with 7 mM EDTA buffer. Next, the buffer was aspirated, and cells were centrifuged for 5 min at 1200 rpm and resuspended in Tyrod buffer. For TCIPA determination, MIA PaCa-2 cells were prepared at different concentrations: 10^5, 2 × 10^5, 5 × 10^5, 10^6 cells/mL; and AsPC-1 cells at concentrations of 5 × 10^4, 10^5, 2 × 10^5 cells/mL [31, 32, 33].
Samples collected after the TCIPA determination using the light aggregometer were fixed in 2.5% glutaraldehyde. The samples were then stained with 1% OsO4, gradually dehydrated with ethanol solution (30–100%), and embedded in EPON solution. Slides were prepared using a Leica UC7 ultramicrotome and stained with Uranyless and Reynolds lead citrate. Preparations were analyzed using a Tecnai G2 Spirit BioTWIN TEM [31].

[2] = test system: MIA PaCa-2 cells; experiment: Cell senescence (flow cytometry and optical microscopy), MIA PaCa-2; assay type: cell-based, human; details: MIA PaCa-2, 72 h; OGF-Gem increasing concentrations (3.125–100 nM), OGF 100 nM, Gem 100 nM
Experimental: In a 6-well plate, 1.7 × 10^5 MIA PaCa-2 and AsPC-1 cells were seeded per well. […] After incubation, the floating and attached cells were collected using a 1% BSA solution and fixed with 2% paraformaldehyde in PBS for 10 min at room temperature. The cells were washed with 1% BSA solution and incubated with the Senescence Detection Kit for 1.5 h at 37 °C without CO2, protected from light. Next, cell senescence was measured via flow cytometry (λex 490 nm; λem 514 nm). Ten thousand events were measured per sample. The data were expressed as a percentage of untreated cells (set to 100%), which were the control.
In a 12-well plate, 10^5 PaCa-2 and AsPC-1 cells were seeded per well. […] The medium was removed from each well and washed with a PBS (pH 7.2) buffer. The cells were incubated with fixative solution (0.2% glutaraldehyde, 2% paraformaldehyde, and a PBS buffer) for 5 min at room temperature. The cells were washed with a PBS (pH 6.0) buffer. Next, the cells were incubated with a staining solution (1 mg/mL X-Gal/DMF, 5 mM K3Fe(CN)6, 5 mM K4Fe(CN)6, 2 mM MgCl2, 150 mM NaCl, and 40 mM citric acid/buffer Na2HPO4) for 16 h at 37 °C, without CO2. After incubation, the cells were observed using an optical microscope (magnification 20x).

[3] = test system: HEK-293 human embryonic kidney cells; experiment: MTT viability assay, HEK-293
Experimental: (§1) The MIA PaCa-2 and AsPC-1 pancreatic cancer cell lines were obtained from the American Type Culture Collection (ATCC; Manassas, VA, USA). MIA PaCa-2, a human pancreatic cancer cell line, was isolated from the pancreatic duct (ATCC, CRL-1420) and cultured in Dulbecco’s Modified Eagle’s Medium (DMEM), supplemented with 10% FBS, 2.5% horse serum, and 1% penicillin/streptomycin (P/S). AsPC-1, a human metastatic pancreatic tumor cell line (ATCC, CRL-1682), was cultured in Roswell Park Memorial Institute 1640 Medium, supplemented with 10% FBS and 1% P/S. HDFa, a human primary dermal fibroblast was obtained from the American Type Culture Collection (ATCC; Manassas, VA, USA). The HDFa was cultured in DMEM and supplemented with 10% FBS and 1% P/S. HEK-293 immortalized human embryonic kidney was obtained courtesy of Professor Ewa Augustin from the Gdansk University of Technology. The HEK-293 was cultured in DMEM, and supplemented with 10% FBS and 1% P/S. Cells were cultured at 37 °C in a humidified atmosphere with 5% CO2. The cells were maintained in a 75 cm^2 tissue culture flask. The medium was replaced every two days. […]
(§2) In a 96-well plate, 7 × 10^3 MIA PaCa-2 and AsPC-1 cells and 3 × 10^3 HEK-293 and 10^4 HDFa cells were seeded per well. […] Cell viability was assessed using the MTT assay. […]

[4] = test system: washed platelets; experiment: Platelet aggregation by compounds alone, light aggregometry; details: tested concentration
[5] = test system: HDFa human primary dermal fibroblasts; experiment: MTT viability assay, HDFa
Experimental: as §1, §2

[6] = test system: washed platelets; experiment: LDH release assay on washed platelets; assay type: cell-based, human; details: 50 and 100 μM, 15 min at 37 °C, fluorescence
Experimental: The isolated WP (prepared as described in Section 2.12) were transferred to a 96-well plate for fluorescence measurements. Next, the OGF-Gm conjugate and the OGF at 50 and 100 μM concentrations were added. The control sample consisted of platelets suspended in Tyrod buffer. The positive control was WP treated with lysis buffer (0.1% Triton X-100) and the lysis buffered-WPs were set to 100%. Platelets with tested compounds were incubated for 15 min at 37 °C. Then, 100 μL of the LDH assay was added to each well and incubated for another 10 min, protected from light. The reaction was stopped with a Stop Solution buffer. Fluorescence intensity was measured with a plate reader (λex 560 nm; λem 590 nm). The results were expressed as the percentage of the total LDH release.

[7] = Stability in DMEM supplemented with 10% FBS; assay type: in vitro ADME; details: DMEM + 10% FBS
Experimental: The OGF-Gem conjugate and OGF alone were incubated in a medium (DMEM) supplemented with 10% FBS at a temperature of 37 °C. The initial concentrations of the peptide and conjugate solutions were both 0.5 mM. Samples of 60 μL were taken immediately after the start of incubation, 30 min, 90 min, 180 min, and 23 h and mixed with 60 μL of acetonitrile to separate the proteins. The formed precipitate was removed via centrifugation for 15 min at 13,000 rpm. The supernatant was analyzed via RP-HPLC [(Shimadzu Prominence, Duisburg, Germany) linear gradient 10–90% phase B, 20 min., column Kinetex 5 μm XB-C18 100Å 150 × 4.6 mm] and MALDI-MS (Autoflex maX MALDI-TOF spectrometer, Bruker Daltonics, Bremen, Germany) using a 2,5-dihydroxybenzoic acid matrix (DHB). A stability analysis was performed according to a protocol previously described by us.

[8] = test system: AsPC-1 metastatic pancreatic cancer cells; experiment: MTT cytotoxicity assay, AsPC-1; assay type: cell-based, human; details: AsPC-1, 72 h
Experimental: The medium was replaced every two days.
Cell viability was assessed using the MTT assay.

[9] = all tested concentrations (1.56–100 nM), 3 days

| Structure (SMILES) | inhibition of TCIPA [1] | induction of cell senescence [2] | reduction in HEK-293 cell viability ([3]; 100 nM, 72 h, compared to the 100 nM OGF-Gem derivative) | effect on platelet aggregation (compound alone) [4] | HDFa cell viability ([5]; 100 nM, 72 h, % of control) | LDH release from platelets [6] | concentration after 23 h compared to the initial state ([7]; 37 °C, 0.5 mM, 23 h, RP-HPLC) | presence of intact compound after 23 h (HPLC) ([7]; 37 °C, 0.5 mM, 23 h, RP-HPLC) | cytotoxic effect compared to the commonly used chemotherapeutic agent (Gem) [8] | cytotoxicity to HEK-293 [3, 9] | presence of intact compound after 23 h (MS) ([7]; 37 °C, 0.5 mM, 23 h, MALDI-MS) | presence of intact compound after 3 days (HPLC) ([7]; 3 days at room temperature, RP-HPLC) | release of parent drug during incubation ([7]; HPLC and MS) | remaining at 23 h, 0.5 mM ([7]; DMEM supplemented with 10% FBS, 37 °C, 0.5 mM, 23 h, RP-HPLC, read-out: HPLC peak area of intact conjugate after 23 h relative to area just after start of incubation) | cytotoxicity to HDFa [5, 9] |
| --- | --- | --- | --- | --- | --- | --- | --- | --- | --- | --- | --- | --- | --- | --- | --- |
| Nc1ccn([C@@H]2O[C@H](CO)[C@@H](O)C2(F)F)c(=O)n1 [Gem, gemcitabine] | did not inhibit | induced | 80% | do not affect platelet aggregation | 35% | – | – | – | – | – | – | – | – | – | – |
| CSCC[C@H](NC(=O)[C@H](Cc1ccccc1)NC(=O)CNC(=O)CNC(=O)[C@@H](N)Cc1ccc(O)cc1)C(=O)O [OGF, [Met^5]-enkephalin, reference compound] | – | – | – | do not affect platelet aggregation | – | did not result in significant releases of LDH | lower | still present | – | – | – | – | – | – | – |
| CSCC[C@H](NC(=O)[C@H](Cc1ccccc1)NC(=O)CNC(=O)CNC(=O)[C@H](Cc1ccc(O)cc1)NC(=O)CCC(=O)OC[C@H]1O[C@@H](n2ccc(N)nc2=O)C(F)(F)[C@@H]1O)C(=O)O [OGF-Gem] | – | – | – | do not affect platelet aggregation | – | did not result in significant releases of LDH | – | confirmed | more pronounced cytotoxic effect | slight cytotoxicity effect | not confirmed | confirmed | gradual release of free Gem | ~39% | slight cytotoxicity effect |
